Measurements taken from patent US20200206291A1, “COMPOSITION FOR PREVENTING OR TREATING OBESITY, COMPRISING SUPPLEMENT FOR REDUCING BODY FAT AND B-GLUCAN AS ACTIVE INGREDIENTS” (QUEGEN BIOTECH CO., LTD., priority 2017, published 2020).

How the values were obtained:
Assay type in all cases: in vivo, C57BL/6 mice
[1] = Summary of the animal tests: supplement for reducing body fat and β-glucan, alone or co-administered; details: administered alone
Experimental: (§1) Six-week-old wild-type C57BL/6 mice, to be subjected to body fat monitoring, were purchased, acclimated for 3 days and then raised. Schizophyllum commune-derived β-glucan (SPG with the structure of β-(1,6)-branched (1,3)-glucan; Quegen Biotech Co., Ltd.) and a phosphate buffer solution (PBS) were orally administered as test drugs in combination or independently once every day. Specifically, 0.2 mL of CLA (concentration=10 mg/mL), and after 30 minutes, 0.2 mL of Schizophyllum commnune-derived β-glucan (SPG with the structure of β-(1,6)-branched (1,3)-glucan; concentration=0.4 mg/mL) were orally administered to Experimental Group 1-1. In addition, 0.2 mL of CLA (concentration=10 mg/mL), and after 30 minutes, 0.2 mL of Schizophyllum commune-derived β-glucan (SPG with the structure of β-(1,6)-branched (1,3)-glucan; concentration=2 mg/mL) were orally administered to Experimental Group 1-2. Meanwhile, 0.2 mL of CLA (concentration=10 mg/mL) was orally administered to Comparative Experimental Group 1-1. In addition, 0.2 mL of Schizophyllum commune-derived β-glucan (SPG with the structure of β-(1,6)-branched (1,3)-glucan; concentration=2 mg/mL) was orally administered to Comparative Experimental Group 1-2, and 0.2 mL of PBS was orally administered to Comparative Experimental Group 1-3.
(§2) Six-week-old wild-type C57BL/6 mice, to be subjected to body fat monitoring, were purchased, acclimated for 3 days and then raised. HCA (Sigma-Aldrich), Schizophyllum commune-derived β-glucan (SPG with the structure of β-(1.6)-branched (1,3)-glucan; Quegen Biotech Co., Ltd.) and a phosphate buffer solution (PBS) were orally administered as test drugs in combination or independently once every day. Specifically, 0.2 mL of HCA (concentration=10 mg/mL), and after 30 minutes, 0.2 mL of Schizophyllum commune-derived β-glucan (SPG with the structure of β-(1,6)-branched (1,3)-glucan; concentration=0.4 mg/mL) were orally administered to Experimental Group 2-1. In addition, 0.2 mL of HCA (concentration=10 mg/mL), and after 30 minutes, 0.2 mL of Schizophyllum commune-derived β-glucan (SPG with the structure of β-(1,6)-branched (1,3)-glucan; concentration=2 mg/mL) were orally administered to Experimental Group 2-2. Meanwhile, 0.2 mL of HCA (concentration=10 mg/mL) was orally administered to Comparative Experimental Group 2-1. In addition, 0.2 mL of Schizophyllum commune-derived β-glucan (SPG with the structure of 3-(1.6)-branched (1,3)-glucan:concentration=2 mg/mL) was orally administered to Comparative Experimental Group 2-2, and 0.2 mL of PBS was orally administered to Comparative Experimental Group 2-3.

[2] = Body weights and tissue weights of mice sacrificed after 28 weeks (Example 1, FIG. 3); details: compared to Comparative Experimental Group 1-3 (PBS)
Experimental: as §1
In addition, in Experimental Groups 1-1 and 1-2 and Comparative Experimental Groups 1-1 to 1-3, the mice were sacrificed after 28 weeks of administering the test drugs, and then body weights and tissue weights thereof measured, and the result is shown in FIG. 3.

[3] = Body weight of mice measured every week for 20 weeks, HCA with or without SPG (Example 2, FIG. 5); details: oral, weekly over 20 weeks; compared to Comparative Experimental Group 2-3 (PBS)
Experimental: as §2, with “In addition, 0.2 mL of Schizophyllum commune-derived β-glucan (SPG with the structure of 3-(1.6)-branched (1,3)-glucan:concentration=2 mg/mL) was orally administered to Comparative Experimental Group 2-2, and 0.2 mL of PBS was orally administered to Comparative Experimental Group 2-3.” left out
Specifically, in Experimental Groups 2-1 and 2-2 and Comparative Experimental Groups 2-1 to 2-3, the body weights of the mice were measured every week for 20 weeks after the start of administration of the test drugs, and the result is shown in FIG. 5.

[4] = Body weight of mice measured every week for 28 weeks, CLA with or without SPG (Example 1, FIG. 2); details: oral, weekly over 28 weeks; compared to Comparative Experimental Group 1-3 (PBS)
Experimental: as §1, with “In addition, 0.2 mL of Schizophyllum commune-derived β-glucan (SPG with the structure of β-(1,6)-branched (1,3)-glucan; concentration=2 mg/mL) was orally administered to Comparative Experimental Group 1-2, and 0.2 mL of PBS was orally administered to Comparative Experimental Group 1-3.” left out
Specifically, in Experimental Groups 1-1 and 1-2 and Comparative Experimental Groups 1-1 to 1-3, the body weights of the mice were measured every week for 28 weeks after the start of administration of the test drugs, and the result is shown in FIG. 2.

[5] = Body weights and tissue weights of mice sacrificed after 20 weeks (Example 2, FIG. 6); details: compared to Comparative Experimental Group 2-3 (PBS)
Experimental: as §2
In addition, in Experimental Groups 2-1 and 2-2 and Comparative Experimental Groups 2-1 to 2-3, the mice were sacrificed after 20 weeks of administering the test drugs, and then body weights and tissue weights thereof measured, and the result is shown in FIG. 6.

[6] = Serum analysis of mice sacrificed after 28 weeks (Example 1, FIG. 4); details: compared to Comparative Experimental Group 1-3 (PBS)
Experimental: as §1
In addition, in Experimental Groups 1-1 and 1-2 and Comparative Experimental Groups 1-1 to 1-3, the mice were sacrificed after 28 weeks of administering the test drugs, and then subjected to serum analysis, and the result is shown in FIG. 4.

[7] = Serum analysis of mice sacrificed after 20 weeks (Example 2, FIG. 7); details: compared to Comparative Experimental Group 2-3 (PBS)
Experimental: as §2, with “2-3. In addition, in Experimental Groups 2-1 and 2-2 and Comparative Experimental Groups 2-1 to 2-3, the mice were sacrificed after 20 weeks of administering the test drugs, and then subjected to serum analysis, and the result is shown in FIG. 7.” for “2-3.”

Compound | weight loss effect [1] | body weight at sacrifice [2] | tissue weight of each organ [2] | body weight as the period of administering the test drugs progressed [3] | body weight as the period of administering the test drugs progressed [4] | body weight at sacrifice [5] | tissue weight of each organ [5] | side effects (hepatotoxicity, increase in blood cholesterol level) [1] | free fatty acid content (serum) [6] | liver damage (serum analysis) [6] | total cholesterol content in blood [6] | triglyceride content (serum) [6] | tissue weight of the liver [2] | free fatty acid content (serum) [7] | liver damage (serum analysis) [7] | total cholesterol content in blood [7] | triglyceride content (serum) [7] | tissue weight of the liver [5]
β-(1,6)-branched (1,3)-glucan [Comparative Experimental Group 1-2] | does not exhibit a significant weight loss effect | almost no change | almost no change | no change in body weight | no change in body weight | almost no change | almost no change |  |  |  |  |  |  |  |  |  |  | 
conjugated linoleic acid [Comparative Experimental Group 1-1] | a weight loss effect caused by reduced body fat is exhibited | greatly decreased | greatly decreased |  | greatly decreased in body weight |  |  | side effects caused by hepatotoxicity and an increase in blood cholesterol level are problematic | decreased by more than half | had liver damage | increased in total cholesterol content in blood | decreased by more than half | rather increased in tissue weight of the liver |  |  |  |  | 
O=C(O)CC(O)(C(=O)O)C(O)C(=O)O (stereo not drawn) [Comparative Experimental Group 2-1, hydroxycitric acid] | a weight loss effect caused by reduced body fat is exhibited |  |  | greatly decreased in body weight |  | greatly decreased | greatly decreased | side effects caused by hepatotoxicity and an increase in blood cholesterol level are problematic |  |  |  |  |  | decreased by more than half | had liver damage | increased in total cholesterol content in blood | decreased by more than half | rather increased in tissue weight of the liver
